According to patent US20250326794A1, “ANTI-CANCER LEUCINE-RICH PEPTIDES AND USES THEREOF” (KING'S COLLEGE LONDON, priority 2019, published 2025):

How the values were obtained:
[1] = system: HMLER-shEcad (human breast cancer stem cell); assay: cells; conditions: 72 h
Method in brief: (§1)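 MTT viability after 72 h exposure to 0–100 μM compound (final DMSO 0.5% or 0%), 5×10^3 cells/well; HMLER lines and MCF-10A in MEGM, U2OS in DMEM with 10% FBS. A550 normalized to matching vehicle controls; IC50 interpolated from dose–response curves.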

[2] = system: HMLER (human breast cancer bulk cell); assay: cells; conditions: 72 h
Method in brief: as §1

[3] = system: HEK293T (human embryonic kidney cell); assay: cells; conditions: 72 h
[4] = ANTS/DPX liposome leakage assay, 3POPC/1POPG vesicles; assay type: biochemical; conditions: 0.5 mM vesicles; for Peptide Concentration-induced 50% ANTS/DPX leakage at pH 4.8, 3POPC/1POPG Vesicle: pH 4.8, lipid per peptide; for Peptide Concentration-induced 50% ANTS/DPX leakage at pH 7.4, 3POPC/1POPG Vesicle: pH 7.4, lipid per peptide
Experimental: (§2) In brief, 0.5 mM POPC vesicles (grey) or POPC:POPG vesicles (ratio 3:1, black) were incubated with peptide concentrations of 0, 0.02, 0.04, 0.08, 0.16, 0.32, 0.64, 1.25, 2.5, 5, 10, and 20 μM in each A) hydrochloric acid-adjusted phosphate buffered saline (1×, pH 4.8) and B) phosphate buffered saline (1×, pH 7.4).
(§3) The lipids 1-palmitoyl-2-oleoyl-sn-glycero-3-phosphocholine (POPC), 1-palmitoyl-2-oleoyl-snglycero-3-phospho-(1′-rac-glycerol) (POPG) were purchased from Avanti Polar Lipids and dissolved in chloroform. Large unilamellar vesicles (LUVs) were produced by extrusion through 100 nm pore filter using an extruder and filters purchased from Avanti Polar Lipids.
(§4) 5 mM ANTS (8-aminonaphthalene-1,3,6-trisulfonic acid, disodium salt) and 12.5 mM DPX (p-xylene-bis-pyridinium bromide) were entrapped in 0.1 μm diameter extruded vesicles with lipids. Gel filtration chromatography using a Sephadex G-100 (GE Healthcare Life Sciences Inc) was used to remove external free ANTS/DPX from LUVs with entrapped contents. LUVs were diluted to 0.5 mM and used to measure the leakage activity by addition of aliquots of peptides. Leakage was measured after 3 h incubation. 10% Triton was used as the positive control to measure the maximum leakage of the vesicle. Fluorescence emission spectra were recorded using excitation and emission wavelength of 350 nm and 510 nm for ANTS/DPX using a BioTek Synergy H1 Hybrid Multi-Mode Reader.
(§5) Table 4 illustrates peptide concentration-induced 50% ANTS/DPX liposome leakage. 0.5 mM POPC and 3POPC/1POPG vesicles were fixed and incubated with titrated peptide concentration ([…]) each in phosphate buffered saline (1×, pH 7.4) and hydrochloric acid-adjusted phosphate buffered saline (1×, pH 4.8). The values are shown as lipid per peptide. †N-terminus is free, C-terminus: —W—NH2.

[5] = Tryptophan fluorescent binding assay, POPC vesicles; conditions: 50 μM peptide, PBS pH 7.4, lipid per peptide
Experimental: (§6) In brief, 50 μM peptides were fixed and incubated with titrated POPC vesicles (black) or 3POPC/1POPG vesicles (grey) at concentrations of 0, 12.5, 25, 50, 100, 250, 500, 1000, 2500, and 5000 μM in phosphate buffered saline (1×, pH 7.4). The lipid concentration that causes 50% peptide binding was determined using a tryptophan fluorescent binding assay and the values are shown as lipid per peptide.
as §3
(§7) Peptides (50 μM) and POPC/POPG LUVs (600 μM) were prepared in 10 mM phosphate buffer (pH 7.0). The solutions were incubated and measured after 60 minutes. Excitation was fixed at 280 nm (slit 9 nm) and emission was collected from 300 to 450 nm (slit 9 nm). The spectra were recorded using a Synergy H1 Hybrid Multi-Mode Reader (FIG. 3A) and Cytation™ 5 Cell Imaging Multi-Mode Reader (FIG. 2) from BioTek and were averaged over 3 scans.
(§8) Table 3 illustrates the lipid concentration-induced 50% peptide binding onto a liposome. 50 μM peptide was fixed and incubated with titrated lipid (POPC vesicles or 3POPC/1POPG vesicles) at concentrations of 0, 12.5, 25, 50, 100, 250, 500, 1000, 2500, and 5000 μM in phosphate buffered saline (1×, pH 7.4). The lipid concentration that causes 50% peptide binding was determined using tryptophan fluorescent binding assay and the values are shown as lipid per peptide. †N-terminus is free, C-terminus: —W—NH2.

[6] = system: U2OS (human bone osteosarcoma); conditions: 72 h
Method in brief: as §1

[7] = Tryptophan fluorescent binding assay, 3POPC/1POPG vesicles; conditions: 50 μM peptide, PBS pH 7.4, lipid per peptide
Experimental: as §6, §3, §7, §8

[8] = ANTS/DPX liposome leakage assay, POPC vesicles; assay type: biochemical; conditions: 0.5 mM vesicles; for Peptide Concentration-induced 50% ANTS/DPX leakage at pH 4.8, POPC Vesicle: pH 4.8, lipid per peptide; for Peptide Concentration-induced 50% ANTS/DPX leakage at pH 7.4, POPC Vesicle: pH 7.4, lipid per peptide
Experimental: as §2, §3, §4, §5

| SMILES | IC50 [1] [µM] | IC50 [2] [µM] | IC50 [3] [µM] | Peptide Concentration-induced 50% ANTS/DPX leakage at pH 4.8, 3POPC/1POPG Vesicle [4] [L/P] | Peptide Concentration-induced 50% ANTS/DPX leakage at pH 7.4, 3POPC/1POPG Vesicle [4] [L/P] | Lipid Concentration-induced 50% Peptide Binding, POPC Vesicle [5] [L/P] | IC50 [6] [µM] | Lipid Concentration-induced 50% Peptide Binding, 3POPC/1POPG Vesicle [7] [L/P] | Peptide Concentration-induced 50% ANTS/DPX leakage at pH 4.8, POPC Vesicle [8] [L/P] | Peptide Concentration-induced 50% ANTS/DPX leakage at pH 7.4, POPC Vesicle [8] [L/P] |
| --- | --- | --- | --- | --- | --- | --- | --- | --- | --- | --- |
| CC(C)C[C@H](NC(=O)CN)C(=O)N[C@@H](CC(C)C)C(=O)N[C@@H](CCC(=O)O)C(=O)N[C@@H](CC(C)C)C(=O)N[C@@H](CC(C)C)C(=O)N[C@@H](CCCCN)C(=O)N[C@@H](CC(C)C)C(=O)N[C@@H](CC(C)C)C(=O)N[C@@H](CC(C)C)C(=O)N[C@@H](CCCCN)C(=O)N[C@@H](C)C(=O)N[C@@H](C)C(=O)NCC(=O)N[C@@H](Cc1c[nH]c2ccccc12)C(N)=O [EKK] | 1.19 ± 0.4 | 1.72 ± 0.21 | 3.35 ± 0.49 | 219 | 235 | 1.50 | 12.2 ± 1.84 | 0.63 | 60 | 1095 |
| CC(C)C[C@H](NC(=O)CN)C(=O)N[C@@H](CC(C)C)C(=O)N[C@@H](CCC(=O)O)C(=O)N[C@@H](CC(C)C)C(=O)N[C@@H](CC(C)C)C(=O)N[C@@H](CCCCN)C(=O)N[C@@H](CC(C)C)C(=O)N[C@@H](CC(C)C)C(=O)N[C@@H](CC(C)C)C(=O)N[C@@H](Cc1c[nH]cn1)C(=O)N[C@@H](C)C(=O)N[C@@H](C)C(=O)NCC(=O)N[C@@H](Cc1c[nH]c2ccccc12)C(N)=O [EKH] | 2.18 ± 0.31 | 2.75 ± 0.07 | 6.65 ± 1.34 | 88 | 365 | 0.75 | 23.8 ± 0.81 | 0.19 | 55 | 608 |
| CC(C)C[C@H](NC(=O)CN)C(=O)N[C@@H](CC(C)C)C(=O)N[C@@H](CC(=O)O)C(=O)N[C@@H](CC(C)C)C(=O)N[C@@H](CC(C)C)C(=O)N[C@@H](CCC(=O)O)C(=O)N[C@@H](CC(C)C)C(=O)N[C@@H](CC(C)C)C(=O)N[C@@H](CC(C)C)C(=O)N[C@@H](CCC(=O)O)C(=O)N[C@@H](C)C(=O)N[C@@H](C)C(=O)NCC(=O)N[C@@H](Cc1c[nH]c2ccccc12)C(N)=O [DEE] | 6.05 ± 2.76 | 5.55 ± 0.35 | 9.91 ± 0.44 | 164 | 597 | 0.63 | 61 ± 1.41 | 0.38 | 110 | 644 |
| CC(C)C[C@H](NC(=O)CN)C(=O)N[C@@H](CC(C)C)C(=O)N[C@@H](Cc1c[nH]cn1)C(=O)N[C@@H](CC(C)C)C(=O)N[C@@H](CC(C)C)C(=O)N[C@@H](CCCCN)C(=O)N[C@@H](CC(C)C)C(=O)N[C@@H](CC(C)C)C(=O)N[C@@H](CC(C)C)C(=O)N[C@@H](Cc1c[nH]cn1)C(=O)N[C@@H](C)C(=O)N[C@@H](C)C(=O)NCC(=O)N[C@@H](Cc1c[nH]c2ccccc12)C(N)=O [HKH] | 3.1 ± 0.57 | 3.45 ± 0.21 | 5.7 ± 0.99 | 47 | 274 | 0.18 | 18.9 ± 1.24 | 0.38 | 193 | 1077 |
